# Results reported in a melting point compilation (Tetko et al.; mined from patent text by program, amines drawn as free bases though some values may be those of a salt).
row,SMILES,melting point
1,Cc1cccc2c(=O)nc(-c3cccc(C(=O)OC(C)(C)C)n3)sc12,204 to 205 °C
2,CCn1cc(C(=O)O)c(=O)c2cc(F)c(N3CCN(CCO)CC3)c(F)c21,225 to 228 °C
3,CCOC(=O)CCC(=O)Nc1ccc(-c2c[nH]c(=O)cn2)cc1,250 °C
4,COc1cc2c(=O)n(CC3CCCO3)c3c4cc5c(cc4ncc3c2cc1OC)OCO5 (stereo not drawn),270 to 273 °C
5,O=C(NCC1(O)CCCCCC1)c1cc(-c2ccccc2C(=O)O)ccc1Cl,113 to 116 °C
6,CC1(C)C=C(c2cccnc2)c2cc(Br)ccc2OC1,116 °C
7,CN(C)c1ccc(S(N)(=O)=O)cn1,133 to 138 °C
8,C=CCc1c(C(=O)N(C)C)cn2cc(C)nc2c1OC(=O)C(C)(C)C,178 to 180 °C
9,O=C(O)/C=C/c1ccc(-c2nc3c(=O)n(CC4CCCCC4)c(=S)n(CC4CCCCC4)c3[nH]2)cc1,> 300 °C
10,O=C(OCC1OC(c2ccc(Cl)c(Cc3cc4ccccc4s3)c2)C(OC(=O)c2ccccc2)C(OC(=O)c2ccccc2)C1O)c1ccccc1 (stereo not drawn),215 to 217 °C
11,O=C(O)Cn1c(=O)c(=O)[nH]c2ccc3ccc(-n4cccc4CNC(=O)c4ccccc4)cc3c21,> 180 °C
12,CCc1cccc(NC(=O)c2cnn(C)c2N)c1,168 to 170 °C
13,COC(=O)c1cn(-c2ccc(F)cc2)c(-c2ccc(N(C)C)c(C)c2)cc1=O,217 to 220 °C
14,N#CCC(=O)Nc1cc(N)ccc1[N+](=O)[O-],218 to 220 °C
15,CCNC(=O)n1nc(Oc2ncc(C(F)(F)F)cc2Cl)cc1CC,85 to 86 °C
16,Cc1ccc2ccc(Cn3c(=S)sc4ccccc43)c(O)c2n1,211 to 215 °C
17,Cn1ccc2c1CC(c1ccccc1)CC2=O (stereo not drawn),166 to 167 °C
18,COc1ccc2cccc(C(C#N)O[Si](C)(C)C)c2c1 (stereo not drawn),123 to 125 °C
19,Nc1nc(Nc2ccc(S(N)(=O)=O)cc2)sc1C(=O)c1c(Cl)cc(C(F)(F)F)cc1Cl,294 to 296 °C
20,CS(=O)(=O)n1c2cc(O)c(O)cc2c2c(Br)cc(O)c(O)c21,> 270 °C
21,COc1ccc(Cn2c(=O)n([C@H]3CC[C@H](O)CC3)c3ccc(C(F)(F)F)cc32)cc1OC,108 to 110 °C
22,O=C(c1cccs1)c1cnn2c(-c3ccc(F)c(N(C(=O)OCC(Cl)(Cl)Cl)C(=O)OCC(Cl)(Cl)Cl)c3)ccnc12,94 to 97 °C
23,[N-]=[N+]=CC(=O)[C@H](O)[C@@H](O)[C@@H](O)CO,93 to 94 °C
24,COc1ccc(CSc2cccc(Cl)c2CN(C)C)cc1,101 to 104 °C
25,N#Cc1cc(NC(=O)c2ccc3ccccc3c2)ccc1N1CCC(O)CC1,183 to 185 °C

row,SMILES,melting point
1,CN(Cc1ccccc1)Cc1c(-c2ccc(N)cc2)sc2c1c(=O)c(C(=O)c1ccccc1)cn2Cc1c(F)cccc1F,126 to 128 °C
2,Cn1nc(-c2ccccc2S(N)(=O)=O)oc1=O,168 to 173 °C
3,N#Cc1ccc(NC(=O)c2ccc(S(=O)(=O)N3CCc4cc(Cl)ccc43)cc2)c(-c2n[nH]c(=O)o2)c1,262 to 264 °C
4,CCCNC(=O)C(C)Cc1ccc2c(CCC)cn(Cc3ccc(C(=O)O)cc3OC)c2c1 (stereo not drawn),90 to 98 °C
5,COC(=O)C(I)C(O)c1ccccc1 (stereo not drawn),56 °C
6,Cc1nnc(-c2ccc3occ(-c4ccc(SCF)cc4)c3c2)o1,143 to 144 °C
7,NC(=O)c1ccc(OC(F)(F)C(F)(F)Br)cc1,150 to 152 °C
8,CCCc1c(OCCCOc2ccc(-c3cscn3)c(OC)c2CCC)ccc2c1OC(CCC(=O)O)CC2 (stereo not drawn),110 to 113 °C
9,CC(C(N)=O)c1ccc2c(c1)CCc1ccccc1S2 (stereo not drawn),135 to 136 °C
10,COc1ccc(Cn2cnc3c(Cl)ncnc32)cc1OC,159 to 163 °C
11,CCC(=O)N1CCC(CC(=O)N2CCC([C@H]3c4ncc(Br)cc4CCc4cc(Cl)cc(Br)c43)CC2)CC1,124 °C
12,O=Cc1cccn1C(=O)c1ccccc1[N+](=O)[O-],95 to 99 °C
13,CCCCCCCCCCCc1nnc2n1-c1ccccc1C(c1ccccc1)=NC2,76 to 77 °C
14,COC(=O)CC1=c2ccccc2=Cc2ccccc2O1,59 to 63 °C
15,CC(C)(C)c1cc(C=Cc2n[nH]c(=O)o2)cc(C(C)(C)C)c1O,> 260 °C
16,O=C(c1cc(C(F)(F)F)cc(C(F)(F)F)c1)N1CCN(C(=O)CN2CCC(O)(c3ccccc3)CC2)C(c2ccc(Cl)c(Cl)c2)C1 (racemic),104 to 106 °C
17,c1ccc2nc(COc3ccc(NC4CCCC4)cc3)ccc2c1,88 °C
18,CS(=O)(=O)OCCCc1ccccc1OCc1coc(/C=C/c2ccccc2)n1,93 to 94 °C
19,O=C1c2cc3c(cc2CCC1NC(=O)C(F)(F)F)CCO3 (stereo not drawn),208 °C
20,COC(=O)CCCCNC(=O)C(CO)NS(=O)(=O)c1ccc(Cl)cc1 (racemic),92 to 94 °C
21,COc1ccc(F)cc1C(C)(C)CC(O)(Cc1cc(C)cc(C)n1)C(F)(F)F (stereo not drawn),95 to 98 °C
22,Cc1ccc(-c2[nH]nc3c2C(=O)c2c(NC(N)=O)cccc2-3)s1,> 280 °C
23,COc1ccc(-c2c(Cl)c(CN3C(=O)CCC3=O)nc3sc4c(c23)CCN(Cc2ccccc2)C4)cc1OC,128 to 130 °C
24,COC(=O)c1ccc(/C=C/C(=O)O)c(Cl)c1,221 °C
25,CCN(CCCc1c[nH]c2ccc(Cl)cc12)C1COc2c(F)ccc(C(N)=O)c2C1 (stereo not drawn),149 to 156 °C

row,SMILES,melting point
1,CCOC(=O)Cc1nnc2c(CC(C)C)nc(-c3ccccc3)cn12,105 to 107 °C
2,COC(=O)C1=Cc2ccc(OCc3nc(-c4ccccc4)oc3C)cc2CC1,130 to 131 °C
3,CCCCCCCCCCNC(=O)c1ccc(C(=O)NCCCCCCCCCC)c(N(CC(=O)OC)CC(=O)OC)c1,76 to 78 °C
4,O=C1CC(c2ccccc2OCc2ccccc2)=Nc2ccc(N3CCCC3)cc21,293 to 295 °C
5,CCCCCCCCOc1ccc(-c2ncc(O)cn2)cc1,131 to 132 °C
6,CC(C)(C)C(=O)Oc1cc(-c2oc3ccccc3c(=O)c2C(=O)N2CCN(c3ccccn3)CC2)cc(OC(=O)C(C)(C)C)c1OC(=O)C(C)(C)C,120 to 125 °C
7,CNC(=S)C1(c2cccc([N+](=O)[O-])c2)CCCCC1=O (stereo not drawn),128 to 132 °C
8,COc1ccc(NC(=O)c2ccc(F)c(F)c2)cc1NCc1cccs1,187 to 189 °C
9,CC1Oc2ccc(OCCCC(C)(C)C(=O)O)cc2C=C1c1nccn1C (stereo not drawn),145 to 146 °C
10,O=C(O)C(=O)c1ccc(OCCCCc2ccncc2)cc1,198 to 199 °C
11,O=C1NCCc2c(-c3cccc(-c4ccccc4)c3)[nH]c3cccc1c23,160 to 163 °C
12,O=C(O)c1csc(CO)c1,149 °C
13,CCc1c(C2=NC(C)(C)CO2)ccc(C2=NC(C)(C)CO2)c1CC,49 to 50 °C
14,Nc1nc(Nc2ccc(N3CCOCC3)cc2)sc1C(=O)c1c(Cl)cncc1Cl,292 °C
15,CC1=CC(c2ccccc2)C(c2cccs2)=NN1 (stereo not drawn),150 °C
16,Cc1ccccc1C1CC(=O)c2c(C)c[nH]c2C1 (stereo not drawn),190 to 191 °C
17,Fc1ccc(-c2ncn(CC3CC3)c2-c2ccncc2)cc1,162 °C
18,CCSc1cn(C)cc(-c2cccc(C(F)(F)F)c2)c1=O,84 to 85 °C
19,CC1(C)CCC(C)(C)c2cc(CCCSN3C=CC=NC3)c(/C=C/c3ccc(C(=O)O)cc3)cc21,177 to 178 °C
20,CCOC(=O)C(=O)Nc1nc(C)c(C)s1,86 to 88 °C
21,CCCc1ccc2nc(F)c(S(N)(=O)=O)n2n1,148 °C
22,CC(C)N1CC=C(c2c[nH]c3ccccc23)CC1,178 °C
23,Cc1oc(-c2ccccc2)nc1COc1ccc(COc2ccc3ccccc3c2C=O)cc1,141 to 142 °C
24,CC(C)(C)OC(=O)[C@@H]1CS[C@H](c2cccnc2)N1C(=O)CNC(=O)Nc1cccc(C(=O)O)c1,147 °C
25,CCOC(=O)Cn1cc(Cc2nc3c(F)c(F)cc(F)c3s2)c2ccc(CC)nc21,114 to 115 °C

row,SMILES,melting point
1,COC(=O)COc1ccc(CC(C)=O)cc1,63 °C
2,COc1c(C)c(C)c(OC)c(C(O)(c2ccc(N3CCOCC3)cc2)C(C)C)c1C (stereo not drawn),191 to 193 °C
3,COC(=O)C=C1CC(=O)N(c2ccccc2)c2cc(Cl)ccc2N1,199 to 201 °C
4,CCCNC1=NS(=O)(=O)c2sc(C)cc2N1,263 to 264 °C
5,COc1ccc2nc3ccc(C(=O)O)cn3c(=O)c2c1,278 to 290 °C
6,Cc1cc2c(c(C)c1S(=O)(=O)C[N+](=O)[O-])CCCO2,136 to 138 °C
7,CCN1CCCC1CNC(=O)c1cc(N(C)S(=O)(=O)CC)ccc1OC (stereo not drawn),85 to 87 °C
8,CC(C)c1ccc(NCc2ccc(Br)cc2)cc1,30 °C
9,COC(=O)c1ccc(-c2nc(NCc3ccc(OC)c(Cl)c3)c3c(n2)sc2ccccc23)cc1,203 to 204 °C
10,CNC(=S)c1ccncc1C1c2ccccc2CC1(C)C (stereo not drawn),187 to 189 °C
11,COC(=O)c1cc2ccnc(NCc3ccccc3)c2[nH]1,154 to 155 °C
12,CCCc1nc2c(N)nc3cc(-c4ccccc4)ccc3c2n1CCCC(C)=NOC,191 to 192 °C
13,CCC(=O)OC(CC)c1ccc(Cl)c2nc3n(c12)CCCN3c1ccc(Cl)cc1Cl (stereo not drawn),133 to 135 °C
14,COC(=O)c1occc1CN1C(=O)c2ccccc2C1=O,140 to 143 °C
15,CCOC(=O)C1[C@H]2O[C@@H]3COC(C)(C)O[C@H]3C(=NO)[C@@H]12 (stereo partly drawn),210 to 213 °C
16,CN1CC(Cn2cccn2)CC2c3cccc4[nH]cc(c34)CC21 (stereo not drawn),192 to 194 °C
17,CC(C)(C)c1nnc2ccc(Cl)nn12,150 to 152 °C
18,CC(=O)OC1CSC(Oc2ccc3c(c2)nnn3C)C(OC(C)=O)C1OC(C)=O (stereo not drawn),80 °C
19,CC(C)OC1=CC2=CCC3C4CCC(=O)C4(C)CCC3C2(C)CC1 (stereo not drawn),147 to 151 °C
20,CN1CCC23CC(=O)CCC2(O)C1Cc1cccc(O)c13 (stereo not drawn),233 to 236 °C
21,COc1cc(OC)c(-c2cc3ccccc3n2C)cc1C=CC(=O)c1ccc(S(=O)(=O)NO)cc1,> 260 °C
22,COC(=O)c1cc(=O)c2oc3ccccc3c(=O)c2n1C,290 to 293 °C
23,CC(C)(C)c1cc(C(=O)c2cccs2)cc2c1OCC2(C)C,103 to 105 °C
